“Also recorded” adds a separate entry of the source.
How the values were obtained:
[1] = system: Huh7 cell; assay: Cytotoxicity / cell viability (MTS) in Huh7 cell; format: cell-based, human; conditions: 100 μM
Method: (§1) Cytotoxicity of 17-DMAG was measured by using a reagent MTS [3-(4,5-dimethylthiazol-2-yl)-5-(3-carboxylmethoxyphenyl)-2-(4-sulfophenyl)-2H-tetrazolium] (Promega, Madison, Wis., USA) according to the protocols of the manufacturer. The experiment was carried out as follows.
(§2) Huh7 or R-1 cells (2×10^4 cell/well) were seeded in a 96-well plate and treated with 17-DMAG at different concentrations for 72 hours. Then, the culture medium was removed and a MTS substrate dissolved in the culture medium containing 5% FBS was added to each well of the plate. The cells were cultured at 37° C. for 1 hour, and absorbance at 490 nm was read in a 96-well micro plate automatic reading system using GloMax-Multi detection system (Promega).
(§3) An experiment was carried out to check whether or not 17-DMAG inhibited virus RNA replication in an R-1 cell in which autonomous replication of a genotype 1b HCV subgenomic replicon RNA was maintained. Before antiviral activity of 17-DMAG was evaluated, an MTS assay was carried out to evaluate whether or not the drug interfered with cell viability. To be specific, the R-1 cell loaded with a selective HCV subgenomic replicon (upper diagram) and its parental cell line Huh7 were treated with 17-DMAG at a certain concentration for 72 hours, and cell viability was evaluated by the MTS assay.

[2] = system: R-1 cell; assay: Cytotoxicity / cell viability in R-1 cell; format: cell-based, human; conditions: R-1 cell, 100 μM
Method: as §1, §2, §3

[3] = system: genotype 2a HCV (JFH1)-infected Huh7 cells; assay: HCV RNA level in Huh7 cells infected with HCV (JFH1); format: cell-based, hepatitis C virus genotype 2a; conditions: Huh7 cell infected with HCV (JFH-1), 60 and 100 μM, 48 hours
Method: (§4) To do so, after the two cell lines were treated with the compound #17 at higher concentrations (60 and 100 μM) than 20 μM for 48 hours, an HCV RNA genome level was checked by a real-time RT-PCR analysis. A value was a mean±standard deviation (SD) of three independent measurements. HCV RNA titer was quantified by real-time PCR analysis. Three independent experiments were performed in triplicate.
Full-length, infectious HCV RNA of the genotype 2a HCV clone JFH1 was prepared by in vitro transcription using the MEGAscript T7 kit (Ambion, Austin, Tex., USA) and electroporated into Huh7 cells as described previously. Briefly, at 72 h post electroporation, culture medium was collected, cleared by low-speed centrifugation, and passed through a 0.45-μm filter (Millipore, Billerica, Mass., USA) before being used for infection of Huh7 cells. Cells were infected with HCV at a multiplicity of infection of 0.3 by adsorption for 3 h with periodic rocking, then washed three times with phosphate-buffered saline (PBS) and maintained in complete DMEM. […]
Total RNA was extracted from R-1 or HCV (JFH1)-infected cells using TRIzol LS reagent (Invitrogen, Carlsbad, Calif., USA) and purified according to the manufacturer's instructions. HCV RNA levels were quantified by RT-PCR using a primer pair and TaqMan probe targeting a region within the HCV 5′-UTR as described previously. […] Assays were performed using the DyNAmo Probe 2-step qRT-PCR Kit (Finnzymes, Espoo, Finland) and a CHROMO4 continuous fluorescence detector (Bio-Rad, Hercules, Calif., USA), according to the manufacturer's instructions.
In order to analyze whether or not 17-DMAG can inhibit replication in a cell infected with HCV, an experiment was carried out with the genotype 2a HCV infectious clone JFH1, which produces infectious virions in Huh7 or Huh7-derived cell lines. […] After 72 hours, total cellular RNA was extracted and HCV remaining in the infected cell was analyzed by quantitative RT-PCR.

[4] = system: genotype 1b HCV subgenomic replicon (R-1 cell line); assay: HCV replication (HCV RNA by real-time RT-PCR, NS5B protein by Western blot) in R-1 subgenomic replicon cells; format: cell-based, hepatitis C virus genotype 1b; conditions: 48 hours
Excerpt: In order to check a PRK2 phosphorylation inhibition effect of the novel inhibitors obtained in Example 1, R-1 cell line harboring HCV subgenomic replicons was used.
The R-1 cell line was comprised of cis-acting RNA elements of 5′ and 3′-end untranslated regions (UTR) essential for replication of HCV RNA, a selection marker inserted to select a replicated RNA into a portion from which a structural protein coding site was removed, and a non-structural protein (NS3-NS5B)-coding gene required for replication. In the replicon, the selection marker was expressed by the HCV 5′-UTR and internal ribosome entry site (IRES) as a part of a coding gene of a core protein as a structural protein and capsid protein, and HCV non-structural proteins were expressed by IRES of EMCV. In order to obtain replicon cells, a HCV subgenomic replicon RNA was obtained by means of in vitro transcription by using a T7 RNA polymerase, free ribonucleotide was removed by using a spin column, and introduced into a hepatocellular carcinoma cell line by electroporation. In the presence of G418, a stable cell line, i.e. a cell line showing a resistance to G418 through replication of HCV subgenome, was obtained. Expression of the HCV non-structural proteins in this cell line was analyzed by Western blot to confirm that replication was being carried out, and the R-1 cell line was constructed. It was observed that an HCV RNA copy number was about 10^7 copies/mL by a quantitative real-time PCR analysis using a TaqMan probe. The R-1 cell line was a cell line in which HCV RNA replication was being carried out, and thus it could be used to evaluate an HCV replication inhibition effect of a PRK2 activity inhibitor.
Then, after the R-1 cell line was treated with each of 5 screened PRK2 inhibitors, HA1077 currently and clinically used as a PRK2 activity inhibitor, and Y27632 having a PRK2 activity inhibition effect at a final concentration of 20 μM for 48 hours, levels of HCV NS5B protein and HCV RNA in cell lysates (50 μg) were analyzed by Western blot and real-time RT-PCR.
as §4
5 derivatives (#18 to #22: refer to FIG. 2) were produced based on the inhibitor #17 showing the best effect. After the R-1 cell line was treated with each of these inhibitors or HA1077 and Y27632 at a final concentration of 20 μM for 48 hours, an HCV RNA genome level was checked by a real-time RT-PCR analysis and expressed in % with respect to a control treated with DSMO. Three independent experiments were conducted repeatedly three times. Data were expressed by mean±SD of the three experiments.
Total RNA was extracted from R-1 or HCV (JFH1)-infected cells using TRIzol LS reagent (Invitrogen, Carlsbad, Calif., USA) and purified according to the manufacturer's instructions. HCV RNA levels were quantified by RT-PCR using a primer pair and TaqMan probe targeting a region within the HCV 5′-UTR as described previously. Cellular glyceraldehyde-3-phosphate dehydrogenase was used as an internal control. Assays were performed using the DyNAmo Probe 2-step qRT-PCR Kit (Finnzymes, Espoo, Finland) and a CHROMO4 continuous fluorescence detector (Bio-Rad, Hercules, Calif., USA), according to the manufacturer's instructions.
Therefore, anti-HCV activity of 17-DMAG in the R-1 cell was tested at a level lower than 50 nM. To do so, the R-1 cell was treated with a vehicle (0.25% DMSO) or 17-DMAG for 72 hours and the cell lysates (50 μg) and antibodies specific to the proteins were immunoblotted to measure levels of the proteins. An anti-α-tubulin antibody (lower end panel) was used as an internal loading control. […]

[5] = target: recombinant active PRK2 (Homo sapiens, UniProt Q16513); assay: In vitro kinase assay: recombinant PRK2 phosphorylating HCV NS5B; format: biochemical; conditions: gamma-32P ATP and 100 μM ATP, autoradiography
Method: Then, in order to test an HCV NS5B protein phosphorylation inhibition effect of the screened novel PRK2 inhibitor, in vitro kinase assay was carried out.
Using a recombinant active PRK2 and purified HCV NS5B protein as substrates, the screened inhibitors #11 and #17 were treated in the presence of gamma-^32P ATP and 100 μM ATP. The reaction mixture was separated by SDS-PAGE (8% gel), and a result thereof was checked by autoradiography.
Finally, PRK2 and HCV NS5B phosphorylation inhibition effects of the compounds #18, #19, #20, #21 and #22 as the derivatives of the compound #17 were analyzed through in vitro kinase assay.
A 1 μM recombinant PRK2 and 10 μM HCV NS5B were phosphorylated for 30 minutes in the presence of 10 μCi γ-^32P ATP and 100 μM ATP. The reaction mixture was separated by SDS-PAGE (8% gel), and a result thereof was checked by autoradiography.

Sequence of recombinant active PRK2 (Q16513 whole entry): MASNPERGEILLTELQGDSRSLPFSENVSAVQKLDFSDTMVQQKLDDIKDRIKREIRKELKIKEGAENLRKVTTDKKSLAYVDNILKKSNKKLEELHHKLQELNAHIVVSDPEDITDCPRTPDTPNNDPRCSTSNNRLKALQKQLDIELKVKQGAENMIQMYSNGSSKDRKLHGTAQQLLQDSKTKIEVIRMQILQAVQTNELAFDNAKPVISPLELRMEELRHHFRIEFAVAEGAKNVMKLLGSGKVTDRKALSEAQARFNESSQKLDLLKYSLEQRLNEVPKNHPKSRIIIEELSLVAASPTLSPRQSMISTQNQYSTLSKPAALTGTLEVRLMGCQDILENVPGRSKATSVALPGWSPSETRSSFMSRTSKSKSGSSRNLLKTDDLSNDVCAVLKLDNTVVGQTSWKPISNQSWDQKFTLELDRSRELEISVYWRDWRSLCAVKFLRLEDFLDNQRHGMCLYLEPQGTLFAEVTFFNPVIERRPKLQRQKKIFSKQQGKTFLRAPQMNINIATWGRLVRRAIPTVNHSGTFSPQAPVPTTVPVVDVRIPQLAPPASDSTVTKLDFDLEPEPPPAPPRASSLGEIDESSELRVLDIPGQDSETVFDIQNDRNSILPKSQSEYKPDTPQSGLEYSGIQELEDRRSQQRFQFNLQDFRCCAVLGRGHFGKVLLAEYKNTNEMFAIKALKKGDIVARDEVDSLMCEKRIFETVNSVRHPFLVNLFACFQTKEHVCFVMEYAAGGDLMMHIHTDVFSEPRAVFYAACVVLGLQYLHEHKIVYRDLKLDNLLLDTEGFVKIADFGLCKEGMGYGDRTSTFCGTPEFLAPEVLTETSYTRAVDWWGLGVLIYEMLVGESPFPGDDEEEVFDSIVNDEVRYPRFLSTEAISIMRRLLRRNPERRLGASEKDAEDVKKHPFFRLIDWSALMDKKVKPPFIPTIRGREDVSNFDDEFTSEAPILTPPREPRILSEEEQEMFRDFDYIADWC

**Q.** How did the “activity of the cells (cytotoxicity)” value [1] turn out when `O=C1NCCCC1C(=O)Nc1ccncc1` (stereo not drawn) [compound #17, 2-oxo-N-4-pyridinyl-3-piperidinecarboxamide] was run?
**A.** The value was “not greatly inhibited”.

**Q.** And the “activity of the cells (cytotoxicity)” value [2]?
**A.** Its value is “not greatly inhibited”.

**Q.** And the “HCV RNA titers” value [3]?
**A.** Its value is “decreased in a dosage-dependent manner; also recorded: slightly higher in a cell infected with JFH-1 than in an HCV subgenomic replicon cell”.

**Q.** What about the “decrease of HCV RNA titers with respect to DMSO control” value ([4]; R-1 cell line, 20 μM) of the same compound?
**A.** Its value is “about 50%”.

**Q.** What about the “HCV RNA titers” value ([4]; R-1 cell, 60 and 100 μM) of the same compound?
**A.** The value was “decreased in a dosage-dependent manner”.

**Q.** What about the “inhibition of in vitro phosphorylation of HCV NS5B protein” value [5] of the same compound?
**A.** Its value is “inhibit phosphorylation of HCV NS5B protein”.

Reference: patent publication US9249159B2, “Composition for treating hepatitis C virus, regulating phosphorylation of replicase” (Industry-Academic Cooperation Foundation, Yonsei University, priority 2011, dated 2016)
